Test results as given in patent US20250177333A1, “METHOD FOR TREATING RHEUMATOID ARTHRITIS (RA) USING AN ENZYME-AND SUBSTRATE SELECTIVE EXOSITE INHIBITOR OF A DISINTEGRIN AND METALLOPROTEASE 10 (ADAM10)” (Nova Southeastern University, priority 2022, published 2025).

Assays:
[1] = test system: collagen-induced arthritis model; assay: Collagen-induced arthritis (CIA) in vivo model; parameters: species or system rat
Description: FIG. 1 is a graph showing disease scores of rat collagen-induced arthritis model study of CID3117694. The disease score is used to assess severity of rheumatoid arthritis (RA) by measuring disease activity, functional impairment, and physical damage present. FIG. 2 is a graph showing paw swelling measurements of rat collagen-induced arthritis model study of CID3117694.* FIGS. 3A-F show micrographs of paw swelling observations of rat collagen-induced arthritis model study of CID3117694. […] The following scale was used: Score 0: normal: Score 1: one joint type (A, B or C) has redness and swelling: Score 2: Two joint types have redness and swelling: Score 3: all three joint types have redness and swelling; and Score 4: maximal redness and swelling of the entire paw leads to disappearance of anatomical definition. […] To test the efficacy of using ADAM10 inhibitor. CID3117694, for treatment of rheumatoid arthritis (RA), the instant inventor conducted a study using the […] Collagen-induced Arthritis (CIA) in vivo model. This model is a gold standard for RA pre-clinical studies of investigational drugs.

ADAM10 [2] = biological target: T1, ADAM10 (Homo sapiens, UniProt O14672); conditions: cited from earlier work
T1 sequence (O14672 214-748): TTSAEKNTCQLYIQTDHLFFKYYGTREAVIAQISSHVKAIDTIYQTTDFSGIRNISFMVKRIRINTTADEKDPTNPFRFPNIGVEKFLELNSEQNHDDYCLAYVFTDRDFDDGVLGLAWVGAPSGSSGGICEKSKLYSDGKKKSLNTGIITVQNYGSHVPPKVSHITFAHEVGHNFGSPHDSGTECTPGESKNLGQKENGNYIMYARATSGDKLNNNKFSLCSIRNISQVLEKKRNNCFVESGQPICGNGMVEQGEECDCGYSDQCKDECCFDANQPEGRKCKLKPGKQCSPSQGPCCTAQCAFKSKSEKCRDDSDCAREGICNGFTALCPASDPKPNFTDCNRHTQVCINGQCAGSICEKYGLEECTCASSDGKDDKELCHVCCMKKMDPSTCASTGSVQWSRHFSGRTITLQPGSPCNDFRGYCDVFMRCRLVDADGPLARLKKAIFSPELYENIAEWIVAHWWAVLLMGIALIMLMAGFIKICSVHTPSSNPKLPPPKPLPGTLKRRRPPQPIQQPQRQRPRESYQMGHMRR

ADAM17 [3] = biological target: T2, ADAM17 (Homo sapiens, UniProt P78536); conditions: cited from earlier work
T2 sequence (P78536 215-824, species assumed): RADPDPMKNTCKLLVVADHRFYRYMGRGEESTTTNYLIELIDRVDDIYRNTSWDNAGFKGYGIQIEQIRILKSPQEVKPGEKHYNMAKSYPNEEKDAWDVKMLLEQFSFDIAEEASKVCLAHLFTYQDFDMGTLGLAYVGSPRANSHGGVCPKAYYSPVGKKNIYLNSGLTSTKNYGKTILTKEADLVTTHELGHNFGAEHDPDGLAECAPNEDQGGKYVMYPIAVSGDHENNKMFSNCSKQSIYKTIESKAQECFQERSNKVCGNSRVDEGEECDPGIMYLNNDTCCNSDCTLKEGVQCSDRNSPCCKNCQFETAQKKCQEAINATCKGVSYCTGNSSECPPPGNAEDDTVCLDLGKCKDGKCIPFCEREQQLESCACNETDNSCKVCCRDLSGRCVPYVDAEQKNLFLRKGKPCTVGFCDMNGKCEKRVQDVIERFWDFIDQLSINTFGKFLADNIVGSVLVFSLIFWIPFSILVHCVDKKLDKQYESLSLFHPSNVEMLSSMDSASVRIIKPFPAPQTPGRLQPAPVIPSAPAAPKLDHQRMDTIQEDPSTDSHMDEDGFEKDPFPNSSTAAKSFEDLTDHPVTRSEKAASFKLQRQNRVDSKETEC

CXCL16 = assay: Cell-based inhibition of CXCL16 shedding (responsible ADAM 10) in A549 cells; conditions: CXCL16, Human, 10 μM tested
Description: (§1) The instant inventor has discovered a conceptually novel class of ADAM10 inhibitors acting via a non-zinc-binding inhibition mechanism.

CCL2-induced = assay: Cell-based inhibition of CCL2-induced migration of PBMC (responsible ADAM 10); conditions: Human, 10 μM tested
Description: as §1

IL8-induced migration = assay: Cell-based inhibition of IL8-induced migration of neutrophils (responsible ADAM 10); conditions: Human, 10 μM tested
Description: as §1

ICOSL = assay: Cell-based inhibition of ICOSL shedding (responsible ADAM 10) in B cells; conditions: Mouse, 10 μM tested
Description: as §1

[4] = Toxicity in cell-based assays
Description: as §1

ADAM10 [5] = biological target: T1, ADAM10; assay: ADAM10 inhibition, HTS campaign and profiling; assay type: biochemical
Description: (§2) An ADAM10 non-Zn-binding inhibition approach overcomes drawbacks of Zn-binders. As shown by global knockout studies. ADAM10 is vital for development, homeostasis and repair, which makes global inhibition of all functions of this enzyme non-feasible as a therapeutic approach. […] In previous research, the instant inventor conducted a HTS campaign to identify inhibitors of ADAM10 and ADAM17. […] This was verified by profiling studies. An exceptional HTS hit, however, is CID3117694 and related compounds (FIG. 7). While it contains highly polar functionality, these groups are not typical Zn binders, such as the hydroxamic acid groups highlighted in LT4, INCB8765, and GI254023X. […] This new class of selective ADAMI0 inhibitors acts via a non-Zn-binding mechanism and that potentially bind outside of an active site at the hitherto unknown secondary substrate binding site (exosite).

ADAM17 [6] = biological target: T2, ADAM17; assay: ADAM17 counter-screen, HTS campaign and profiling; assay type: biochemical
Description: as §2

[7] = test system: broader panel of Zn metalloproteases; assay: Profiling against broader panel of Zn metalloproteases; assay type: biochemical
Description: as §2

ADAM10 [8] = biological target: T1, ADAM10; conditions: PubChem AID 743338; cited from earlier work
adrenergic (ADRB2) = adrenergic (ADRB2) (Homo sapiens, UniProt P07550); conditions: PubChem; cited from earlier work
Sequence of adrenergic (ADRB2) (P07550 whole entry, species assumed): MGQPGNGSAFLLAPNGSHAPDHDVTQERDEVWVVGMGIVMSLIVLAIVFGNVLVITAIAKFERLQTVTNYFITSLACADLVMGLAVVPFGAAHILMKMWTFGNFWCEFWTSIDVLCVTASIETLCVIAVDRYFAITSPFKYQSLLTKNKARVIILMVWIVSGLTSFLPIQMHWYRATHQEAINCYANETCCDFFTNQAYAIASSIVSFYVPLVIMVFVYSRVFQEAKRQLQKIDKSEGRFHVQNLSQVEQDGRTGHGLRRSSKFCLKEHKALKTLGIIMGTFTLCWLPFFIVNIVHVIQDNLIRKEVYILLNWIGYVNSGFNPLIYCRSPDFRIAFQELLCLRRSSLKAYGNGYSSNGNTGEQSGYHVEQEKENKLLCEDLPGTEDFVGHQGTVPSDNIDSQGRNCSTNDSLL

muscarinic (CHRM1) = biological target: T3, muscarinic (CHRM1) (Homo sapiens, UniProt P11229); conditions: PubChem; cited from earlier work
T3 sequence (P11229 1-460): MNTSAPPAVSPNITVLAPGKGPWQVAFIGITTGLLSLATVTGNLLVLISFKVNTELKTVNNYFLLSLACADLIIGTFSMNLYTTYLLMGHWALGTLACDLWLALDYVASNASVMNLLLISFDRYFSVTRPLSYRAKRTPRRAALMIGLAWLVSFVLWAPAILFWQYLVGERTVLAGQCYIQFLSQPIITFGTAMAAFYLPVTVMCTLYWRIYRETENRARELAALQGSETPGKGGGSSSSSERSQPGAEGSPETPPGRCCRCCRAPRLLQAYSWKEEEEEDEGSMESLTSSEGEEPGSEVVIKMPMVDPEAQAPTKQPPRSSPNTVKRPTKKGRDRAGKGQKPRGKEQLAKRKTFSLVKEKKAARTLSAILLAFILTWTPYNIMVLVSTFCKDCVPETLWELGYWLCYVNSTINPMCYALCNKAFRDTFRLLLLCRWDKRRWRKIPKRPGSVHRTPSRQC

opioid receptors (OPRK1) = opioid receptors (OPRK1) (Homo sapiens, UniProt P41145); conditions: PubChem; cited from earlier work
Sequence of opioid receptors (OPRK1) (P41145 whole entry, species assumed): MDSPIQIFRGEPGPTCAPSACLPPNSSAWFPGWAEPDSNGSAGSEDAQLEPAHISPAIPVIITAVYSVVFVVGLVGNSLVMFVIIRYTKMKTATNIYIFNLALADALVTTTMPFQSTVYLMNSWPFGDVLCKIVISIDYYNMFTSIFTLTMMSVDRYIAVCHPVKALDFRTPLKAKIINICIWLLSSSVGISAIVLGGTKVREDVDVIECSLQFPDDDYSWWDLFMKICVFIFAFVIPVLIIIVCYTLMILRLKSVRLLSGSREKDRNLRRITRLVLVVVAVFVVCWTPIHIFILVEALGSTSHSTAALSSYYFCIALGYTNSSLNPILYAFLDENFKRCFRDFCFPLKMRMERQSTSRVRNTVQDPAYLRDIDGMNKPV

opioid receptors (OPRM1) = opioid receptors (OPRM1) (Homo sapiens, UniProt P35372); conditions: PubChem; cited from earlier work
Sequence of opioid receptors (OPRM1) (P35372 whole entry, species assumed): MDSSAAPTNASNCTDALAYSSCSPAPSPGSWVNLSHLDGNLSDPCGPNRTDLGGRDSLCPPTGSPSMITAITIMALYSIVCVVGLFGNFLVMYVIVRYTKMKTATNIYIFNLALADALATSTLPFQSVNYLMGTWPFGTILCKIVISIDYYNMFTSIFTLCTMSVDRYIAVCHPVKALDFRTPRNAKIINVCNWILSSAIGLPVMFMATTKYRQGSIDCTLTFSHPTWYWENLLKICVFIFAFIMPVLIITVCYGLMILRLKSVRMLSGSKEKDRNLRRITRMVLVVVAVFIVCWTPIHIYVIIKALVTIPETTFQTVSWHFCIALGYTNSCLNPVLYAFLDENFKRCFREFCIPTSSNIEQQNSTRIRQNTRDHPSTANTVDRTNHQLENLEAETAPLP

opioid receptors (OPRD1) = opioid receptors (OPRD1) (Homo sapiens, UniProt P41143); conditions: PubChem; cited from earlier work
Sequence of opioid receptors (OPRD1) (P41143 whole entry, species assumed): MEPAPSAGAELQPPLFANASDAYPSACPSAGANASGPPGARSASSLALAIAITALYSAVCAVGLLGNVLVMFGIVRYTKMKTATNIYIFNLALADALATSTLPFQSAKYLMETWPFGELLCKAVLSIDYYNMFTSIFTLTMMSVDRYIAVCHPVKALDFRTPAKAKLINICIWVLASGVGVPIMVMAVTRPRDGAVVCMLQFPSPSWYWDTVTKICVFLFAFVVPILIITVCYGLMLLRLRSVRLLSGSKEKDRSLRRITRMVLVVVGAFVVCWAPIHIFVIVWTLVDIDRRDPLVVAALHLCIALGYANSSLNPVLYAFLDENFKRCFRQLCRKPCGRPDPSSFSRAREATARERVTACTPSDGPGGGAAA

[9] = PubChem database search; cited from earlier work

COc1ccc2c(c1)c(CC(=O)O)c(C)n2C(=O)c1ccc(Cl)cc1 [Indomethacin, indomethacin, reference compound]
histopathology of right hind paws ([1]; G3, CIA+Indomethacin 2.5 mg Kg): Normal Morphology of bone & cartilage of arthritis joint: Capital SI: Synovial inflammation: Capital H: Hyperplasia

CNC(=O)[C@@H](NC(=O)[C@H](CCCc1ccccc1)[C@H](C)N(O)C=O)C(C)(C)C [GI 254023X]
IC50 (ADAM10 [2]): 5.3 nM
IC50 (ADAM17 [3]): 541 nM

COc1cccc(C(=O)NNC(=O)C(=O)Nc2ccc(C)c(Cl)c2)c1 [CID3117694, N-(3-chloro-4-methylphenyl)-2-[2-(3-methoxybenzoyl) hydrazinyl]-2-oxoacetamide]
% Inhibition (CXCL16): 80%
% Inhibition (CCL2-induced): 50%
% Inhibition (IL8-induced migration): 100%
% Inhibition (ICOSL): 95%
toxicity in cell-based assays [4]: lack of toxicity
ADAM10 inhibitory potency (ADAM10 [5]): micromolar-potent
affinity for ADAM17 (ADAM17 [6]): negligible affinity
affinity for a broader panel of Zn metalloproteases [7]: negligible affinity
RA disease score ([1]; FIG. 1): dose-dependently lowers
paw swelling ([1]; FIG. 2 measurement, FIGS. 3A-F observation): dose-dependently lowers
serum levels of RA biomarker C-reactive protein ([1]; FIG. 4): dose-dependently decreases
serum levels of RA biomarker Interleukin-6 (IL-6) ([1]; FIG. 5): dose-dependently decreases
serum levels of RA biomarker Interleukin-10 (IL-10) ([1]; FIG. 6): dose-dependently decreases
histopathology of right hind paws ([1]; G4, CIA+Test Comp 10 mg Kg): Synovial inflammation: Capital H: Hyperplasia: Capital P: Pannus Formation: Capital IEJ: Inflamed & eroded joint
histopathology of right hind paws ([1]; G5, CIA+Test Comp 30 mg Kg): Synovial inflammation: Capital H: Hyperplasia
histopathology of right hind paws ([1]; G6, CIA+Test Comp 50 mg Kg): Normal healthy bone & cartilage of arthritis joint: Capital H: Hyperplasia. Capital SI: Synovial inflammation
activity in PubChem bioassay (ADAM10 [8]): active
activity against ADRB2 (adrenergic (ADRB2)): inactive
activity against CHRM1 (muscarinic (CHRM1)): inactive
activity against OPRK1 (opioid receptors (OPRK1)): inactive
activity against OPRM1 (opioid receptors (OPRM1)): inactive
activity against OPRD1 (opioid receptors (OPRD1)): inactive
biological activity across PubChem bioassays [9]: inactive in 524 bioassays and active only against 3 targets

O=C(NO)[C@H]1C[C@H](OC(=O)N2CCCC2)CC[C@@H]1C(=O)N1CCC(c2ccccc2)CC1 [INCB8765]
IC50 (ADAM10 [2]): 97 nM
IC50 (ADAM17 [3]): 2040 nM
